From ChEMBL document CHEMBL4359822, “Design, synthesis of 4,5-diazafluorene derivatives and their anticancer activity via targeting telomeric DNA G-quadruplex” (Eur J Med Chem, 2019)
Active and inactive are the calls of the source. The calls are words filed in the database; no cut-off is given here.

Experiments:
A549 [1] = test: Inhibition of cell migration in human A549 cells at 0.2 uM incubated for 48 hrs by wound healing assay relative to control; format: functional; settings: A549, 48 h
[2] = Binding affinity to Tel26nt double stranded DNA (unknown origin) at 4 to 16 uM measured after each titration for 15 mins during 24 hrs incubation by circular dichroism analysis
AGS [3] = test: Inhibition of cell migration in human AGS cells at 0.2 uM incubated for 48 hrs by wound healing assay relative to control; format: functional
MCF7 [4] = test: Inhibition of cell migration in human MCF7 cells at 0.1 uM incubated for 48 hrs by wound healing assay relative to control; format: functional; settings: MCF7, 48 h
[5] = Binding affinity to Tel-26nt G-rich DNA (unknown origin) at 0.25 :1 to 6 : 1 ratio of test compound to DNA measured after each titration for 15 mins during 24 hrs incubation by circular dichroism analysis
[6] = Binding affinity to biotinylated Tel26nt double stranded DNA (unknown origin) assessed as dissociation rate constant by SPR analysis
[7] = Binding affinity to biotinylated Tel-26nt G-rich DNA (unknown origin) assessed as association equilibrium constant by SPR analysis
[8] = Selectivity index, ratio of IC50 for human MRC5 cells to IC50 for human AGS cells; format: toxicity; settings: MRC5 cells versus AGS cells, read-out: Ratio IC50
[9] = Binding affinity to Tel-26nt G-rich DNA (unknown origin) assessed as change in melting temperature at 4 uM by UV-vis spectrophotometry (reference value: 38.33 +/- 0.07 degreeC)
HepG2 [10] = test: Inhibition of cell migration in human HepG2 cells at 0.4 uM incubated for 48 hrs by wound healing assay relative to control; format: functional; settings: HepG2, 48 h
[11] = target: Telomerase reverse transcriptase (Homo sapiens) (UniProt O14746); test: Inhibition of telomerase activity in human A549 cells at 8 uM by TRAP assay relative to control; format: cell-based
[12] = Binding affinity to Tel-26nt G-rich DNA (unknown origin) assessed as change in melting temperature at 2 uM by UV-vis spectrophotometry (reference value: 38.33 +/- 0.07 degreeC)
[13] = Binding affinity to biotinylated Tel26nt double stranded DNA (unknown origin) at 1:1 ratio of test compound to DNA by SPR analysis
[14] = Selectivity index, ratio of IC50 for human MRC5 cells to IC50 for human A549 cells; format: toxicity; settings: MRC5 cells versus A549 cells, read-out: Ratio IC50
[15] = Binding affinity to Tel-26nt C-rich DNA (unknown origin) at 24 uM incubated for 24 hrs by EMSA
[16] = Binding affinity to biotinylated Tel26nt double stranded DNA (unknown origin) assessed as association rate constant by SPR analysis
HepG2 [17] = test: Inhibition of cell migration in human HepG2 cells at 0.2 uM incubated for 48 hrs by wound healing assay relative to control; format: functional; settings: HepG2, 48 h
A549 [18] = test: Inhibition of cell migration in human A549 cells at 0.1 uM incubated for 48 hrs by wound healing assay relative to control; format: functional; settings: A549, 48 h
HepG2 [19] = test: Antiproliferative activity against human HepG2 cells at 10 uM incubated for 36 hrs by CCK8 assay; format: functional, cell-based
MRC5 = test: Antiproliferative activity against human MRC5 cells incubated for 36 hrs by CCK8 assay; format: cell-based; settings: MRC5, 36 h
AGS [20] = test: Inhibition of cell migration in human AGS cells at 0.4 uM incubated for 48 hrs by wound healing assay relative to control; format: functional
[21] = Binding affinity to Tel-26nt G-rich DNA (unknown origin) assessed as change in melting temperature at 8 uM by UV-vis spectrophotometry (reference value: 38.33 +/- 0.07 degreeC)
[22] = Binding affinity to Tel-26nt G-rich DNA (unknown origin) at => 3 uM incubated for 24 hrs by EMSA
[23] = Binding affinity to biotinylated Tel-26nt G-rich DNA (unknown origin) assessed as dissociation rate constant by SPR analysis
[24] = Binding affinity to 26-nt telomeric G-rich RNA (unknown origin) at 24 uM incubated for 24 hrs by EMSA
[25] = Binding affinity to Tel-26nt G-rich DNA (unknown origin) at 10 uM by UV-Vis spectrophotometric analysis
[26] = Binding affinity to Tel-26nt G-rich DNA (unknown origin) assessed as change in melting temperature by UV-vis spectrophotometry
[27] = Binding affinity to Tel-26nt G-rich DNA (unknown origin) at 12 uM incubated for 24 hrs by EMSA
[28] = Binding affinity to biotinylated Tel-26nt G-rich DNA (unknown origin) at 1:1 ratio of test compound to DNA by SPR analysis
A549 [29] = test: Antiproliferative activity against human A549 cells incubated for 36 hrs by CCK8 assay; format: functional, cell-based; settings: A549, 36 h
HepG2 [30] = test: Antiproliferative activity against human HepG2 cells incubated for 36 hrs by CCK8 assay; format: functional, cell-based; settings: HepG2, 36 h
AGS [31] = test: Inhibition of cell migration in human AGS cells at 0.1 uM incubated for 48 hrs by wound healing assay relative to control; format: functional
MCF7 [32] = test: Inhibition of cell migration in human MCF7 cells at 0.2 uM incubated for 48 hrs by wound healing assay relative to control; format: functional; settings: MCF7, 48 h
[33] = Binding affinity to Tel-26nt G-rich DNA (unknown origin) incubated for 24 hrs by EMSA
[34] = Binding affinity to biotinylated Tel-26nt G-rich DNA (unknown origin) assessed as association rate constant by SPR analysis
MCF7 [35] = test: Inhibition of cell migration in human MCF7 cells at 0.4 uM incubated for 48 hrs by wound healing assay relative to control; format: functional; settings: MCF7, 48 h
[36] = Selectivity ratio of binding affinity to biotinylated Tel26nt double stranded DNA (unknown origin) to binding affinity to biotinylated Tel-26nt G-rich DNA (unknown origin)
MCF7 [37] = test: Antiproliferative activity against human MCF7 cells at 10 uM incubated for 36 hrs by CCK8 assay; format: functional, cell-based
[38] = Binding affinity to Tel-26nt G-rich DNA (unknown origin) at 4 to 16 uM measured after each titration for 15 mins during 24 hrs incubation by circular dichroism analysis
[39] = Binding affinity to biotinylated Tel26nt double stranded DNA (unknown origin) assessed as association equilibrium constant by SPR analysis
[40] = Selectivity index, ratio of IC50 for human MRC5 cells to IC50 for human MCF7 cells; format: toxicity; settings: MRC5 cells versus MCF7 cells, read-out: Ratio IC50
[41] = Binding affinity to Tel-26nt mutated-single-stranded DNA (unknown origin) at 4 to 16 uM measured after each titration for 15 mins during 24 hrs incubation by circular dichroism analysis
[42] = target: Telomerase reverse transcriptase (Homo sapiens) (UniProt O14746); test: Inhibition of telomerase activity in human A549 cells at 2 to 8 uM by TRAP assay; format: cell-based
MCF7 [43] = test: Antiproliferative activity against human MCF7 cells incubated for 36 hrs by CCK8 assay; format: functional, cell-based; settings: MCF7, 36 h
[44] = Binding affinity to Tel-26nt G-rich DNA (unknown origin) assessed as change in melting temperature at 8 uM by UV-vis spectrophotometry
A549 [45] = test: Inhibition of cell migration in human A549 cells at 0.4 uM incubated for 48 hrs by wound healing assay relative to control; format: functional; settings: A549, 48 h
[46] = Binding affinity to Tel-26nt mutated-single-stranded DNA (unknown origin) at 24 uM incubated for 24 hrs by EMSA
HepG2 [47] = test: Inhibition of cell migration in human HepG2 cells at 0.1 uM incubated for 48 hrs by wound healing assay relative to control; format: functional; settings: HepG2, 48 h
[48] = Binding affinity to Tel26nt double stranded DNA (unknown origin) at 24 uM incubated for 24 hrs by EMSA
AGS [49] = test: Antiproliferative activity against human AGS cells at 10 uM incubated for 36 hrs by CCK8 assay; format: functional, cell-based
AGS [50] = test: Antiproliferative activity against human AGS cells incubated for 36 hrs by CCK8 assay; format: functional, cell-based
A549 [51] = test: Antiproliferative activity against human A549 cells at 10 uM incubated for 36 hrs by CCK8 assay; format: functional, cell-based
[52] = Selectivity index, ratio of IC50 for human MRC5 cells to IC50 for human HEPG2 cells

Telomerase reverse transcriptase (Homo sapiens), sequence (O14746 whole entry): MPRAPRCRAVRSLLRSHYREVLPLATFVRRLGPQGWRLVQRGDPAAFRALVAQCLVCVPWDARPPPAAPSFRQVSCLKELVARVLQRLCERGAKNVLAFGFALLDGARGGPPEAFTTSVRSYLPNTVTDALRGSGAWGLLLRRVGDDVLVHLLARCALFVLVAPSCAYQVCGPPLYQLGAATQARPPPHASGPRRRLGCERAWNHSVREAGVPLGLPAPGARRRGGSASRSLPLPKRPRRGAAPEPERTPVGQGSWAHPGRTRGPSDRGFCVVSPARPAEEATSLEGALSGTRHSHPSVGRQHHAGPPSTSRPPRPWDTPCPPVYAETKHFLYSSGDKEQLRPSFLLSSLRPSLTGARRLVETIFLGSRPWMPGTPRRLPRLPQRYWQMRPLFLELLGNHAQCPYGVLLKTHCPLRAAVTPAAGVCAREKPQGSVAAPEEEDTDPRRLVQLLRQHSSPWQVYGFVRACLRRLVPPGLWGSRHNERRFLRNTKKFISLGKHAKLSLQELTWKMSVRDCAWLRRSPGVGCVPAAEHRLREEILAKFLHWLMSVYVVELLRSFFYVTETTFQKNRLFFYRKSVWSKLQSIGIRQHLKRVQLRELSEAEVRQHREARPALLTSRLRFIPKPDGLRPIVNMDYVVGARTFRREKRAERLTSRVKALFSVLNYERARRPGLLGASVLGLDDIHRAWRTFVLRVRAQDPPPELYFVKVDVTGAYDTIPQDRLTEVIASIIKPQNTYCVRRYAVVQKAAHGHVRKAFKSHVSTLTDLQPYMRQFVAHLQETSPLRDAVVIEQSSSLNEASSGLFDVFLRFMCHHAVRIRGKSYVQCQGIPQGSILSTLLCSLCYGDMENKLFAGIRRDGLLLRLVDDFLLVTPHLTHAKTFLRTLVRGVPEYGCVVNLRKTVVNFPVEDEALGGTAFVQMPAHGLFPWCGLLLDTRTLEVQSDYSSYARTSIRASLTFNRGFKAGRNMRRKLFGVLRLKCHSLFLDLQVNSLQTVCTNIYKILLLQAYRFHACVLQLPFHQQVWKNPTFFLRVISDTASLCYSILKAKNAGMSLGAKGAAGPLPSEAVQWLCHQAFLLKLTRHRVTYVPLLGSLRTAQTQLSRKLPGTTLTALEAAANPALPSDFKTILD

- Activity [2]: inactive
- Activity [5]: Active
- Kd [6]: 2.58 ×10⁻² /s
- KA [7]: 7.04 ×10⁷ /M
- Tm [9]: 53.1 °C
- inhibition [11]: 61.7%
- Tm [12]: 48.6 °C
- Activity [13]: inactive
- Activity [15]: inactive
- Ka [16]: 1.13 ×10³ /M/s
- Tm [21]: 44.9 °C
- Activity [22]: Active
- Kd [23]: 9.49 ×10⁻² /s
- Activity [24]: inactive
- Activity [25]: Active
- deltaTm [26]: Dose-dependent effect
- Activity [27]: Active
- Activity [28]: Active
- IC50 (A549 [29]): 1.13 µM
- IC50 (HepG2 [30]): 3.48 µM
- Activity [33]: Dose-dependent effect
- Ka [34]: 6.68 ×10⁶ /M/s
- Selectivity ratio [36]: > 1000
- Activity [38]: Active
- KA [39]: 4.38 ×10⁴ /M
- Activity [41]: inactive
- inhibition [42]: Active
- IC50 (MCF7 [43]): 5.27 µM
- ΔTm [44]: 24.3 °C
- Activity [46]: inactive
- Activity [48]: Active
- IC50 (AGS [50]): 1.81 µM
Structure (SMILES): CN(C)CCCn1cc(C=C2c3cccnc3-c3ncccc32)c(-c2ccc(Br)cc2)n1
- inhibition at 0.2 µM (A549 [1]): 61.7%
- inhibition at 0.2 µM (AGS [3]): 71.7%
- inhibition at 0.1 µM (MCF7 [4]): 31.9%
- selectivity ratio [8]: 4.25
- inhibition at 0.4 µM (HepG2 [10]): 69.3%
- selectivity ratio [14]: 7.01
- inhibition at 0.2 µM (HepG2 [17]): 49.3%
- inhibition at 0.1 µM (A549 [18]): 22.3%
- growth inhibition (GI) (HepG2 [19]): Active
- IC50 (MRC5): 7.92 µM
- inhibition at 0.4 µM (AGS [20]): 89.8%
- inhibition at 0.1 µM (AGS [31]): 52.2%
- inhibition at 0.2 µM (MCF7 [32]): 50.3%
- inhibition at 0.4 µM (MCF7 [35]): 67.3%
- growth inhibition (GI) (MCF7 [37]): Active
- selectivity ratio [40]: 1.46
- inhibition at 0.4 µM (A549 [45]): 84.5%
- inhibition at 0.1 µM (HepG2 [47]): 27.9%
- growth inhibition (GI) (AGS [49]): Active
- growth inhibition (GI) (A549 [51]): Active
- Ratio IC50 [52]: 2.21
